Data reported in PubChem BioAssay (NCI).
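A five-concentration, 48-hour dose response in 96-well plates underlies each endpoint, interpolated linearly between surrounding concentrations. GI50 marks 50% less growth. At the TGI there is no net growth.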

Assays:
Test in all cases: NCI-60 cell line screen, 48 h
SNB-19 CNS = system: SNB-19 CNS
U251 CNS = system: U251 CNS
UACC-62 melanoma = system: UACC-62 melanoma
OVCAR-5 ovarian = system: OVCAR-5 ovarian
KM12 colon = system: KM12 colon
DU-145 prostate = system: DU-145 prostate
SK-MEL-2 melanoma = system: SK-MEL-2 melanoma
HCT-116 colon = system: HCT-116 colon
HCC-2998 colon = system: HCC-2998 colon
LOX IMVI melanoma = system: LOX IMVI melanoma
CCRF-CEM leukemia = system: CCRF-CEM leukemia
786-0 renal = system: 786-0 renal
NCI-H460 lung = system: NCI-H460 lung
MDA-MB-231 breast = system: MDA-MB-231 breast
SF-539 CNS = system: SF-539 CNS
BT-549 breast = system: BT-549 breast
MDA-MB-435 = system: MDA-MB-435
SW-620 colon = system: SW-620 colon
NCI/ADR-RES ovarian = system: NCI/ADR-RES ovarian
IGROV1 ovarian = system: IGROV1 ovarian
SR leukemia = system: SR leukemia
K-562 leukemia = system: K-562 leukemia
SN12C renal = system: SN12C renal
M14 melanoma = system: M14 melanoma
CAKI-1 renal = system: CAKI-1 renal
MOLT-4 leukemia = system: MOLT-4 leukemia
NCI-H522 lung = system: NCI-H522 lung
A498 renal = system: A498 renal
EKVX NSCLC = system: EKVX NSCLC
HCT-15 colon = system: HCT-15 colon
OVCAR-8 ovarian = system: OVCAR-8 ovarian
NCI-H226 lung = system: NCI-H226 lung
HT29 colon = system: HT29 colon
T-47D breast = system: T-47D breast
SK-OV-3 ovarian = system: SK-OV-3 ovarian
SF-295 CNS = system: SF-295 CNS
MCF7 breast = system: MCF7 breast
UO-31 renal = system: UO-31 renal
UACC-257 melanoma = system: UACC-257 melanoma
ACHN renal = system: ACHN renal
HOP-62 NSCLC = system: HOP-62 NSCLC
NCI-H23 lung = system: NCI-H23 lung
SF-268 CNS = system: SF-268 CNS
SK-MEL-5 melanoma = system: SK-MEL-5 melanoma
HL-60(TB) leukemia = system: HL-60(TB) leukemia
COLO 205 colon = system: COLO 205 colon
PC-3 prostate = system: PC-3 prostate

Compound: Cc1c(C(N)=O)sc2c1c(=O)n(Cc1ccccc1)c1nnc(SCC(=O)Nc3ccc(Cl)cc3)n21
- GI50 (SNB-19 CNS): 63.5 µM
- TGI (SNB-19 CNS): > 100 µM
- GI50 (U251 CNS): 4.14 µM
- TGI (U251 CNS): 19.5 µM
- GI50 (UACC-62 melanoma): 9.26 µM
- TGI (UACC-62 melanoma): > 100 µM
- GI50 (OVCAR-5 ovarian): > 100 µM
- TGI (OVCAR-5 ovarian): > 100 µM
- GI50 (KM12 colon): 15.5 µM
- TGI (KM12 colon): > 100 µM
- GI50 (DU-145 prostate): > 100 µM
- TGI (DU-145 prostate): > 100 µM
- GI50 (SK-MEL-2 melanoma): > 100 µM
- TGI (SK-MEL-2 melanoma): > 100 µM
- GI50 (HCT-116 colon): 1950 nM
- TGI (HCT-116 colon): 4.85 µM
- GI50 (HCC-2998 colon): 5.56 µM
- TGI (HCC-2998 colon): > 100 µM
- GI50 (LOX IMVI melanoma): 5.45 µM
- TGI (LOX IMVI melanoma): > 100 µM
- GI50 (CCRF-CEM leukemia): 25.1 µM
- TGI (CCRF-CEM leukemia): > 100 µM
- GI50 (786-0 renal): 2460 nM
- TGI (786-0 renal): 7.78 µM
- GI50 (NCI-H460 lung): 3.28 µM
- TGI (NCI-H460 lung): > 100 µM
- GI50 (MDA-MB-231 breast): 3.81 µM
- TGI (MDA-MB-231 breast): 19.4 µM
- GI50 (SF-539 CNS): 2530 nM
- TGI (SF-539 CNS): 6.33 µM
- GI50 (BT-549 breast): 3.65 µM
- TGI (BT-549 breast): > 100 µM
- GI50 (MDA-MB-435): > 100 µM
- TGI (MDA-MB-435): > 100 µM
- GI50 (SW-620 colon): > 100 µM
- TGI (SW-620 colon): > 100 µM
- GI50 (NCI/ADR-RES ovarian): > 100 µM
- TGI (NCI/ADR-RES ovarian): > 100 µM
- GI50 (IGROV1 ovarian): 28 µM
- TGI (IGROV1 ovarian): > 100 µM
- GI50 (SR leukemia): 3.19 µM
- TGI (SR leukemia): 14 µM
- GI50 (K-562 leukemia): 12.6 µM
- TGI (K-562 leukemia): > 100 µM
- GI50 (SN12C renal): > 100 µM
- TGI (SN12C renal): > 100 µM
- GI50 (M14 melanoma): 4.63 µM
- TGI (M14 melanoma): > 100 µM
- GI50 (CAKI-1 renal): > 100 µM
- TGI (CAKI-1 renal): > 100 µM
- GI50 (MOLT-4 leukemia): > 100 µM
- TGI (MOLT-4 leukemia): > 100 µM
- GI50 (NCI-H522 lung): 4.12 µM
- TGI (NCI-H522 lung): > 100 µM
- GI50 (A498 renal): 2510 nM
- TGI (A498 renal): > 100 µM
- GI50 (EKVX NSCLC): 18.1 µM
- TGI (EKVX NSCLC): > 100 µM
- GI50 (HCT-15 colon): > 100 µM
- TGI (HCT-15 colon): > 100 µM
- GI50 (OVCAR-8 ovarian): 4.03 µM
- TGI (OVCAR-8 ovarian): > 100 µM
- GI50 (NCI-H226 lung): 5.8 µM
- TGI (NCI-H226 lung): 46.2 µM
- GI50 (HT29 colon): > 100 µM
- TGI (HT29 colon): > 100 µM
- GI50 (T-47D breast): 3.52 µM
- TGI (T-47D breast): 15.1 µM
- GI50 (SK-OV-3 ovarian): 3.37 µM
- TGI (SK-OV-3 ovarian): > 100 µM
- GI50 (SF-295 CNS): 4.71 µM
- TGI (SF-295 CNS): 73.8 µM
- GI50 (MCF7 breast): 6.61 µM
- TGI (MCF7 breast): > 100 µM
- GI50 (UO-31 renal): > 100 µM
- TGI (UO-31 renal): > 100 µM
- GI50 (UACC-257 melanoma): 3.44 µM
- TGI (UACC-257 melanoma): > 100 µM
- GI50 (ACHN renal): > 100 µM
- TGI (ACHN renal): > 100 µM
- GI50 (HOP-62 NSCLC): 3.71 µM
- TGI (HOP-62 NSCLC): 15.5 µM
- GI50 (NCI-H23 lung): 2780 nM
- TGI (NCI-H23 lung): 10.7 µM
- GI50 (SF-268 CNS): 8.05 µM
- TGI (SF-268 CNS): > 100 µM
- GI50 (SK-MEL-5 melanoma): 4.89 µM
- TGI (SK-MEL-5 melanoma): 24 µM
- GI50 (HL-60(TB) leukemia): > 100 µM
- TGI (HL-60(TB) leukemia): > 100 µM
- GI50 (COLO 205 colon): 6.99 µM
- TGI (COLO 205 colon): > 100 µM
- GI50 (PC-3 prostate): 3.3 µM
- TGI (PC-3 prostate): > 100 µM
